Source: US20240358692A1, “TREATMENT OF SCLERODERMA” (Aisa Pharma, Inc., priority 2023, published 2024)

Assays:
[1] = tested on: participants with SSc-RP; assay: SHAQ - Visual Analog Scale - Breathing Problems; type: in vivo, human; set-up: Visual Analog Scale-Breathing Problems, In Clinic Visit (Day 12), Mean / Visual Analog Scale-Breathing Problems, In Clinic Visit (Day 12), Median / SHAQ Visual Analogue Scale - Breathing Problems, In-Clinic Visit (Day 12), Mean / SHAQ Visual Analogue Scale - Breathing Problems, In-Clinic Visit (Day 12), Median / SHAQ Visual Analogue Scale - Breathing Problems, Change from Baseline, Median: scale not given here
Description: (§1) The standard, validated, patient reported outcome measures tool for SSc patients, the Scleroderma Health Assessment Questionnaire (SHAQ), will be used to assess the participant qualify of life. Details are attached in the Appendix. The participant quality of life will be scored, and a disability index calculated for each questionnaire completed by the patient at Screening and each in-clinic visit. The absolute change in participant quality of life from baseline to the end of each dosing period will be calculated similar to frequency data as before.
(§2) The standard, validated, patient reported outcome measures tool for SSc patients, the SHAQ, was collected at the time points specified in the study schedules (FIG. 2 and FIGS. 4A and 4B) to assess the participant's quality of life. The SHAQ included a Raynaud's VAS that will also be reported separately.

[2] = tested on: participants with SSc-RP; assay: SHAQ - Visual Analog Scale - Overall Disease Severity; type: in vivo, human; settings: tadalafil 5 mg
Description: as §1, §2

[3] = Modified ITT Population-Part A, dose cilnidipine 10 mg, tadalafil 5 mg, alone or combined as labelled
[4] = Tadalafil 5 mg, SSc patients, PP, Part A

CN1CC(=O)N2[C@H](c3ccc4c(c3)OCO4)c3[nH]c4ccccc4c3C[C@@H]2C1=O [Tadalafil]
Visual Analog Scale-Breathing Problems, Change from Baseline, Mean ([1]; Modified ITT Population-Part A, Day 12, dose cilnidipine 10 mg, tadalafil 5 mg, alone or combined as labelled): 0.500 | Visual Analog Scale-Breathing Problems, In Clinic Visit (Day 12), Mean [1, 3]: 4.300 | Visual Analog Scale-Breathing Problems, In Clinic Visit (Day 12), Median [1, 3]: 4.000 | SHAQ VAS Breathing Problems, Change from Baseline, Max [1, 4]: 2.80 | SHAQ VAS Breathing Problems, Change from Baseline, Mean [1, 4]: 0.500 | SHAQ VAS Breathing Problems, Change from Baseline, Median [1, 4]: 1.050 | SHAQ VAS Breathing Problems, Change from Baseline, Min [1, 4]: −2.90, | SHAQ VAS Breathing Problems, Change from Baseline, Q1 [1, 4]: −1.450, | SHAQ VAS Breathing Problems, Change from Baseline, Q3 [1, 4]: 2.450 | SHAQ VAS Breathing Problems, Day 12, Max [1, 4]: 9.20 | SHAQ VAS Breathing Problems, Day 12, Mean [1, 4]: 4.300 | SHAQ VAS Breathing Problems, Day 12, Median [1, 4]: 4.000 | SHAQ VAS Breathing Problems, Day 12, Min [1, 4]: 0.00, | SHAQ VAS Breathing Problems, Day 12, Q1 [1, 4]: 0.100, | SHAQ VAS Breathing Problems, Day 12, Q3 [1, 4]: 8.500 | SHAQ VAS Breathing Problems, Percent Change from Baseline, Max [1, 4]: 56.0 | SHAQ VAS Breathing Problems, Percent Change from Baseline, Mean [1, 4]: −2.66 | SHAQ VAS Breathing Problems, Percent Change from Baseline, Median [1, 4]: 29.58 | SHAQ VAS Breathing Problems, Percent Change from Baseline, Min [1, 4]: −93.5, | SHAQ VAS Breathing Problems, Percent Change from Baseline, Q1 [1, 4]: −93.55, | SHAQ VAS Breathing Problems, Percent Change from Baseline, Q3 [1, 4]: 56.00 | VAS Overall Severity Change from Baseline Max [2]: 2.40 | VAS Overall Severity Change from Baseline Median [2]: 0.700 | VAS Overall Severity Change from Baseline Min [2]: −1.30 | VAS Overall Severity Change from Baseline Q1 [2]: −0.600 | VAS Overall Severity Change from Baseline Q3 [2]: 1.850 | VAS Overall Severity Day 12 Max [2]: 9.10 | VAS Overall Severity Day 12 Mean [2]: 5.600 | VAS Overall Severity Day 12 Min [2]: 0.20 | VAS Overall Severity Day 12 Q1 [2]: 2.200 | VAS Overall Severity Day 12 Q3 [2]: 9.000 | VAS Overall Severity Percent Change from Baseline Max [2]: 100.0% | VAS Overall Severity Percent Change from Baseline Min [2]: −23.6% | VAS Overall Severity Percent Change from Baseline Q1 [2]: −3.48% | VAS Overall Severity Percent Change from Baseline Q3 [2]: 68.46%
